Experiment in all cases: Large panel kinase profiling
Type in all cases: biochemical
Common to all, as to settings: 1 μM test article, 1 mM ATP

One test deals with T1, ULK2 (Homo sapiens, UniProt Q8IYT8).
T1 construct: AssayQuant Technologies, Inc. (contract laboratory that ran the panel)
T1 sequence (Q8IYT8 1-1036): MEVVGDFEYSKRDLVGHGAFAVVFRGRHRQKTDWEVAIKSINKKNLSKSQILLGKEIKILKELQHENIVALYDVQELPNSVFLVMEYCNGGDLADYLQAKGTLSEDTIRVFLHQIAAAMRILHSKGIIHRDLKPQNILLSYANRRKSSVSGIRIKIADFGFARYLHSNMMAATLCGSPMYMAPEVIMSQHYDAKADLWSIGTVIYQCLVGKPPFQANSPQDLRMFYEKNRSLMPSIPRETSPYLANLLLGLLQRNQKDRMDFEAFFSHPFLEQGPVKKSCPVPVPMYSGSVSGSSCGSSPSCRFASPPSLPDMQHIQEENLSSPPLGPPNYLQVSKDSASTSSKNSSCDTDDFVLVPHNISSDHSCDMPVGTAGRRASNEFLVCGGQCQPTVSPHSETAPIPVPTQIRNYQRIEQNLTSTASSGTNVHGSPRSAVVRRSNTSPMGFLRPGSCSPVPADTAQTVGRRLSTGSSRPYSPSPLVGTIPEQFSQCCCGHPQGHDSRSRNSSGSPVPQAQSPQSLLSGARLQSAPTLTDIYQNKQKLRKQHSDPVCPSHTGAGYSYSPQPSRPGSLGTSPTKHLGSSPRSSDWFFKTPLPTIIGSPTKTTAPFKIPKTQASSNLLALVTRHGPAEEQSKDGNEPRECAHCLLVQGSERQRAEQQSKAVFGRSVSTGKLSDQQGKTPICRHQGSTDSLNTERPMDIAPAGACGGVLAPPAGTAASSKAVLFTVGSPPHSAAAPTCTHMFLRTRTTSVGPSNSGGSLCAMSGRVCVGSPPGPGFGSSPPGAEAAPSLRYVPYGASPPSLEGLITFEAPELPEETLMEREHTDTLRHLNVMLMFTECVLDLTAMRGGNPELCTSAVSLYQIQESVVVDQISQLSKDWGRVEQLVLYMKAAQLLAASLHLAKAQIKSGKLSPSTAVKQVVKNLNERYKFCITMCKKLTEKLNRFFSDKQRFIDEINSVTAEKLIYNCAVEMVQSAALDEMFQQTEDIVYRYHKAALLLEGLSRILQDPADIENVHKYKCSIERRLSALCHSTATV
The method, boiled down: (§1)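 Fluorescence intensity (Ex 360 nm, Em 485 nm) was monitored continuously, once per minute, in PhosphoSens CSox-Sensor kinase reactions held at 30° C. Compound was present at 1 μM and ATP at 1 mM.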

Another test addresses PAK3 (Homo sapiens, UniProt O75914). Put shortly: as §1
In the next test the target is T2, MAP3K5 (Homo sapiens, UniProt Q99683).
T2 construct: AssayQuant Technologies, Inc. (service provider)
T2 sequence (Q99683 1-1374): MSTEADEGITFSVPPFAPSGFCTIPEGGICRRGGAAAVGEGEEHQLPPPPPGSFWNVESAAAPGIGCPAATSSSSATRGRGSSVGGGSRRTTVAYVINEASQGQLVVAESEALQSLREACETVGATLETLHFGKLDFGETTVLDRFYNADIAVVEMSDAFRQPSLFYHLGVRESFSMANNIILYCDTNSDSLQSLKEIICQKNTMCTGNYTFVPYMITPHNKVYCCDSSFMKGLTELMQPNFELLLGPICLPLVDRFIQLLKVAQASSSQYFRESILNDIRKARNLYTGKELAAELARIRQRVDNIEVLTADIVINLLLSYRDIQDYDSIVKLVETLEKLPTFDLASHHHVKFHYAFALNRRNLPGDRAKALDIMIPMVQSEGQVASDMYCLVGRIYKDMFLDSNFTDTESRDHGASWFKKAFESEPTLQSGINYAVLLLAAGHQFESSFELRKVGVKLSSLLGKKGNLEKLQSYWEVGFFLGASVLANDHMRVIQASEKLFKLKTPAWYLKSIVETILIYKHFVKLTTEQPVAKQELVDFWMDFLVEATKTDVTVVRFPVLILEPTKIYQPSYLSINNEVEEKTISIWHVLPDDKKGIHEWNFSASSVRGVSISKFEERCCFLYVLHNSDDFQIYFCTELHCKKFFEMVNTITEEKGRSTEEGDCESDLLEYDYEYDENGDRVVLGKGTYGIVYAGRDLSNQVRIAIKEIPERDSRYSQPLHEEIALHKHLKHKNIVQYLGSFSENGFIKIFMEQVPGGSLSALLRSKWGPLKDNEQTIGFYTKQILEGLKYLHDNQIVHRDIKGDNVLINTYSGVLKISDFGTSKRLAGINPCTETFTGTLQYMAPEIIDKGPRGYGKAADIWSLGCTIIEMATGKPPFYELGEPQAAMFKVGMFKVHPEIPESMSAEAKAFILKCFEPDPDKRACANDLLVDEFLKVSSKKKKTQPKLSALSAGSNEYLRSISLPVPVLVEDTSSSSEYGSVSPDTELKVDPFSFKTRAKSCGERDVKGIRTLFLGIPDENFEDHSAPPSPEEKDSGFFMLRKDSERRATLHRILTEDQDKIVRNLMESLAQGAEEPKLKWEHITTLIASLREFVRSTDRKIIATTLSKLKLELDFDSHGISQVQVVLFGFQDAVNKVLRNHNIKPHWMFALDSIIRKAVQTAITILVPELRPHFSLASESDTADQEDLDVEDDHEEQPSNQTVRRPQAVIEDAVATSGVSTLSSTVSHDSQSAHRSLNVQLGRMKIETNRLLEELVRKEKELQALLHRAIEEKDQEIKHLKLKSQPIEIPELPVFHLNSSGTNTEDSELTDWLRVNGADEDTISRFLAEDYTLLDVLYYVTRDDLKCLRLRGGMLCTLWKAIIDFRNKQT
The method, boiled down:
as §1

A further test addresses FGFR3 (Homo sapiens, UniProt P22607). The method, boiled down: as §1

Results on three compounds are retold here after US20220009920A1 (GB005, Inc., priority 2020, published 2022).

Chain of FGFR3 (P22607 23-806, species assumed): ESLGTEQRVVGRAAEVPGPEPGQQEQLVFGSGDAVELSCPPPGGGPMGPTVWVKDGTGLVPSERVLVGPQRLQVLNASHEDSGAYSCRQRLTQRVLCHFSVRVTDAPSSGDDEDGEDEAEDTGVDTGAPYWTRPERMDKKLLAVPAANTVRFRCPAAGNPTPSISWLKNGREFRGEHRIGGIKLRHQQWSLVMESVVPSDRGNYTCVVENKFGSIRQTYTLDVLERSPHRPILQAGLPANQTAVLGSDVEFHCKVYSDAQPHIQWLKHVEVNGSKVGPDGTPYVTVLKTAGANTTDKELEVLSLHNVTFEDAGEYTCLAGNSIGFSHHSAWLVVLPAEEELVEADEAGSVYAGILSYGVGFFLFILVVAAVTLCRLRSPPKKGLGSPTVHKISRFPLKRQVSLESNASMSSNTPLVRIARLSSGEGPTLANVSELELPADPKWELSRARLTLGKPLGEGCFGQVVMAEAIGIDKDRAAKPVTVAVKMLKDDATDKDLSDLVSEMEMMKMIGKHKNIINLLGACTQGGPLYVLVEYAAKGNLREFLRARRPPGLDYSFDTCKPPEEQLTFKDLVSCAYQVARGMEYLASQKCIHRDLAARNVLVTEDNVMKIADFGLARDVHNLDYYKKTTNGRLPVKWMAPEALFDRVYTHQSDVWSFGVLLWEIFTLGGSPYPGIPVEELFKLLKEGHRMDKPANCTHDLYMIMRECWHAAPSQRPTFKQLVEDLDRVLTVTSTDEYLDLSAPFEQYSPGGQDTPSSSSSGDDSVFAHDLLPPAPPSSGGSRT
Chain of PAK3 (O75914 whole entry, species assumed): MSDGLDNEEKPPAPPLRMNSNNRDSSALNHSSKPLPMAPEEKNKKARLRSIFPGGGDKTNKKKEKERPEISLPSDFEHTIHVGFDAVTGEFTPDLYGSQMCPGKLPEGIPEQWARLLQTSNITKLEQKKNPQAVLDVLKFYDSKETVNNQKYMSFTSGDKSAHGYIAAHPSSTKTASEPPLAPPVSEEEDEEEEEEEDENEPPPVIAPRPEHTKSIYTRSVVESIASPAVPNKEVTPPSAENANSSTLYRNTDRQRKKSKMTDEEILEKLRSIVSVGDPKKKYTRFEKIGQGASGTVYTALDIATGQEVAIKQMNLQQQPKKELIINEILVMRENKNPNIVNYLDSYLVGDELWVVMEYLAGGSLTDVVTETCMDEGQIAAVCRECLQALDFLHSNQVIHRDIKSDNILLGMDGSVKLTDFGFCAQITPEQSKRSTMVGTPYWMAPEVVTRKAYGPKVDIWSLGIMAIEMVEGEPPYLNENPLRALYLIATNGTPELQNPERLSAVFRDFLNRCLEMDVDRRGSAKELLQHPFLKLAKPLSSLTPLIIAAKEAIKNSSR

On to `C=CC(=O)N1CCCC(c2c(F)cc(C(N)=O)c3[nH]c4c(c23)CCCCC4)C1` (single isomer, unassigned) [Compound 5-6], for which the inhibition at 1 µM at ULK2 was -17.5%; against PAK3, 5.4%; at MAP3K5, -10.4%; against FGFR3, 24.2%.
As for `C=CC(=O)N1CCC[C@@H](c2c(F)cc(C(N)=O)c3[nH]c4c(c23)CC2(CC4)CC2)C1` [Compound 6-2, (S)-5-(1-acryloylpiperidin-3-yl)-6-fluoro-1,2,4,9-tetrahydrospiro[carbazole-3,1′-cyclopropane]-8-carboxamide], the inhibition at 1 µM at ULK2 is -6.2%; against PAK3, 10.2%; on MAP3K5, 20%; against FGFR3, 10.5%.
For the compound `C=CC(=O)N1CCC[C@@H](c2c(F)cc(C(N)=O)c3[nH]c4c(c23)CCC4)C1` [Compound 10-2, (S)-8-(1-acryloylpiperidin-3-yl)-7-fluoro-1,2,3,4-tetrahydrocyclo-penta[b]indole-5-carboxamide], the inhibition at 1 µM is -5.8% at ULK2, 21.7% against PAK3, 16.7% at MAP3K5 and 18.3% at FGFR3.
